{"source": "patent US10906910B2", "about": "“Substituted bicyclic pyrimidine compounds with tubulin and multiple receptor inhibition” (Duquesne University of the Holy Spirit, priority 2014, dated 2021)", "format_in_all_cases": "cell-based", "key": {"MCF7": {"test_system": "MCF7", "experiment": "NCI 60 panel, Breast Cancer MCF7", "conditions": "Homo sapiens, read-out: Tumor cell inhibitory activity (NCI) GI50"}, "MOLT-4": {"test_system": "MOLT-4", "experiment": "NCI 60 panel, Leukemia MOLT-4", "conditions": "Homo sapiens, read-out: Tumor cell inhibitory activity (NCI) GI50"}, "HOP-92": {"test_system": "HOP-92", "experiment": "NCI 60 panel, NSCLC HOP-92", "conditions": "Homo sapiens, read-out: Tumor cell inhibitory activity (NCI) GI50"}, "SK-MEL-2": {"test_system": "SK-MEL-2", "experiment": "NCI 60 panel, Melanoma SK-MEL-2", "conditions": "Homo sapiens, read-out: Tumor cell inhibitory activity (NCI) GI50"}, "OVCAR-5": {"test_system": "OVCAR-5", "experiment": "NCI 60 panel, Ovarian cancer OVCAR-5", "conditions": "Homo sapiens, read-out: Tumor cell inhibitory activity (NCI) GI50"}, "UACC-62": {"test_system": "UACC-62", "experiment": "NCI 60 panel, Melanoma UACC-62", "conditions": "Homo sapiens, read-out: Tumor cell inhibitory activity (NCI) GI50"}, "HOP-62": {"test_system": "HOP-62", "experiment": "NCI 60 panel, NSCLC HOP-62", "conditions": "Homo sapiens, read-out: Tumor cell inhibitory activity (NCI) GI50"}, "SNB-75": {"test_system": "SNB-75", "experiment": "NCI 60 panel, CNS Cancer SNB-75", "conditions": "Homo sapiens, read-out: Tumor cell inhibitory activity (NCI) GI50"}, "NCI-H460": {"test_system": "NCI-H460", "experiment": "NCI 60 panel, NSCLC NCI-H460", "conditions": "Homo sapiens, read-out: Tumor cell inhibitory activity (NCI) GI50"}, "UACC-257": {"test_system": "UACC-257", "experiment": "NCI 60 panel, Melanoma UACC-257", "conditions": "Homo sapiens, read-out: Tumor cell inhibitory activity (NCI) GI50"}, "M14": {"test_system": "M14", "experiment": "NCI 60 panel, Melanoma M14", "conditions": "Homo sapiens, read-out: Tumor cell inhibitory activity (NCI) GI50"}, "SW-620": {"test_system": "SW-620", "experiment": "NCI 60 panel, Colon Cancer SW-620", "conditions": "Homo sapiens, read-out: Tumor cell inhibitory activity (NCI) GI50"}, "HT29": {"test_system": "HT29", "experiment": "NCI 60 panel, Colon Cancer HT29", "conditions": "Homo sapiens, HT-29, read-out: Tumor cell inhibitory activity (NCI) GI50"}, "SNB-19": {"test_system": "SNB-19", "experiment": "NCI 60 panel, CNS Cancer SNB-19", "conditions": "Homo sapiens, read-out: Tumor cell inhibitory activity (NCI) GI50"}, "LOX IMVI": {"test_system": "LOX IMVI", "experiment": "NCI 60 panel, Melanoma LOX IMVI", "conditions": "Homo sapiens, read-out: Tumor cell inhibitory activity (NCI) GI50"}}, "data": [{"smiles": "COc1ccc(N(C)c2nc(C)nc3c(Cc4ccccc4)cn(C)c23)cc1", "note": "[Compound 4, 7-Benzyl-N-(4-methoxyphenyl)-N,2,5-trimethyl-5H-pyrrolo[3,2-d]pyrimidin-4-amine]", "values": [{"measurement": "GI50", "setting": "MCF7", "value": 33.3, "unit": "nM"}, {"measurement": "GI50", "setting": "MOLT-4", "value": 50.8, "unit": "nM"}, {"measurement": "GI50", "setting": "HOP-92", "value": 47.1, "unit": "nM"}, {"measurement": "GI50", "setting": "SK-MEL-2", "value": 28.6, "unit": "nM"}, {"measurement": "GI50", "setting": "OVCAR-5", "value": 269, "unit": "nM"}, {"measurement": "GI50", "setting": "UACC-62", "value": 475, "unit": "nM"}, {"measurement": "GI50", "setting": "HOP-62", "value": 47.8, "unit": "nM"}, {"measurement": "GI50", "setting": "SNB-75", "value": 27.8, "unit": "nM"}, {"measurement": "GI50", "setting": "NCI-H460", "value": 38.7, "unit": "nM"}, {"measurement": "GI50", "setting": "UACC-257", "value": 78.2, "unit": "nM"}, {"measurement": "GI50", "setting": "M14", "value": 29.5, "unit": "nM"}, {"measurement": "GI50", "setting": "SW-620", "value": 38.4, "unit": "nM"}, {"measurement": "GI50", "setting": "HT29", "value": 35.1, "unit": "nM"}, {"measurement": "GI50", "setting": "SNB-19", "value": 54.7, "unit": "nM"}, {"measurement": "GI50", "setting": "LOX IMVI", "value": 58.8, "unit": "nM"}]}]}
